Experimental data taken from patent US5112864A, “PLA2 inhibitors as antiinflammatories” (G. D. Searle & Co., priority 1991, dated 1992).

The compounds below were run against T1, Human synovial fluid phospholipase A2 (HSF-PLA2) (Homo sapiens, UniProt P14555) (assay: Human synovial fluid phospholipase A2 (HSF-PLA2) assay, [14C]-oleate-labeled autoclaved E. coli substrate). Conditions: purified HSF-PLA2; pH 7.0, 5 mM CaCl2; 5 min pre-incubation; 37° C., 30 minutes; mean.
T1 construct: Human synovial fluid phospholipase A2 was purified approximately 5000 fold; from tissue; host or cells: human synovial fluid
T1 sequence (P14555 21-144): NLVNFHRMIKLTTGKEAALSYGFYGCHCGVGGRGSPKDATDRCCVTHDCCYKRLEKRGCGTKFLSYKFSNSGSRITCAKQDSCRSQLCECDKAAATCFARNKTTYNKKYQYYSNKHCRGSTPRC
Assay type: biochemical
Procedure: Human synovial fluid phospholipase A2 was purified approximately 5000 fold following the procedures of Franson et al., Lung 160, 275-284 (1982) and Vishwanath et al., Inflammation 12(6), 549-56 (1988). Following purification the enzyme activity was measured by a modified methodology using [^14 C]-oleate-labeled, autoclaved E. coli as the substrate as also shown in the above noted references. The assay was performed in a final volume of 100 μl containing 50 mM HEPES (pH 7.0), 150 mM NaCl, 5mM CaCl2, 7 n mole [^14 C]-oleate-labeled E. coli phospholipid and with or without the compound from one of the examples herein undergoing an assay. The compound or control vehicle was pre-incubated with the PLA2 for 5 minutes followed by addition of the E. coli substrate to initiate the reaction. The reaction was maintained at 37° C. for 30 minutes and then terminated by the addition of 2 ml tetrahydrofuran (THF). The reaction product, [^14 C]-oleic acid, was extracted using a 1 ml Bond Elut-NH2 Solid phase extraction column. The IC50 value for the compound (mean -S.E.) is given in the following Table I and represents the concentration of the indicated compound required to inhibit 50% of the PLA2 activity.

Row | IC50 [µM] | SMILES
1 | 2.75 | COC(=O)c1cccc(CC(=O)C#CCCCCCCCCCOc2ccccc2)c1 [Example 7, methyl 3-(2-oxo-13-phenoxy-3-tridecynyl)benzoate]
2 | 20.6 | COCCCCCCCCCC#CC(=O)Cc1cccc(C(=O)OC)c1 [Example 9, methyl 3-(2-oxo-13-methoxy-3-tridecynyl)benzoate]
3 | 17.4 | CCCCCCCCCCCCCC#CC(=O)Cc1ccccc1C(=O)OC [Example 11, methyl 2-(2-oxo-3heptadecynyl)benzoate]

Further lines, the compound ahead of its results:

Row | SMILES | IC50 [µM]
4 | CCCCCCCCCCCCCC#CC(=O)Cc1cccc(C(=O)OC)c1 [Example 5, methyl 3-(2-oxo-3-heptadecynyl) benzoate] | 6
5 | CCCCCCCCCCCCCC#CC(=O)Cc1ccc(C(=O)OC)cc1 [Example 14, methyl 4-(2-oxo-3heptadecynyl)benzoate] | 2.2
